“Also recorded” adds a separate entry of the source.
Columns and labels:
shTCF4 cells = experiment: Whole-cell current-clamp recordings (AP spiking, mAHP/sAHP) in shTCF4 (TCF4 knockdown) mPFC layer 2/3 pyramidal neurons, acute brain slices; assay type: cell-based, rat; conditions: N=8
Description: (§1) Pregnant Wistar rats were obtained from Charles River Laboratories, Inc., maintained by SoBran on a 12-hour light cycle and fed ad libitum. In utero electroporation was performed as previously described (Chen et al., 2014; Maher and Loturco, 2012a). Electroporation was performed on embryonic day 16 (E16) and gestation age was confirmed during surgery. All plasmids were used at a final concentration of 1.5 μg/μl, and the mPFC was targeted for transfection. Pregnant dams were returned to the same housing conditions after recovery from surgery, and after litters were born, transfected rats were used for experiments at days P18-24.
(§2) Acute brain slices were obtained from rats and mice as described previously (Maher and Loturco, 2012b). Briefly, P18-24 male and female animals were deeply anesthetized with isoflurane and transcardially perfused with ice-cold oxygenated (95% O2 and 5% CO2) dissecting buffer containing (in mM): 83 NaCl, 2.5 KCl, 1 NaH2PO4, 26.2 NaHCO3, 22 glucose, 72 sucrose, 0.5 CaCl2, and 3.3 MgCl2. Animals were humanly sacrificed and decapitated and the brains were rapidly removed and immersed in ice-cold oxygenated dissection buffer. Coronal slices (300 μm) were cut using a vibratome (Microm HM650V), incubated in dissection buffer for 30-45 minutes at 34° C., and then stored at room temperature. Slices were visualized using IR differential interference microscopy (DIC) (Olympus BX51WI) and a CCD camera (QICAM, QImaging). Individual layer 2/3 pyramidal cells expressing EGFP in rat brain slices were visualized with epifluorescent illumination and a 43× Olympus LUMPlanFLN (0.8 numerical aperture) objective.
(§3) For all experiments, artificial cerebrospinal fluid (ACSF) was oxygenated (95% O2 and 5% CO2) and contained in (in mM): 125 NaCl, 25 NaHCO3, 1.25 NaH2PO4, 3 KCl, 25 dextrose, 1 MgCl2, and 2 CaCl2, pH 7.3. Patch pipettes were fabricated from borosilicate glass (N51A, King Precision Glass, Inc.) to a resistance of 2-5 MΩ. For current- and voltage-clamp measurements, pipettes were filled with (in mM): 125 potassium gluconate, 10 HEPES, 4 Mg-ATP, 0.3 Na-GTP, 0.1 EGTA, 10 phosophocreatine, 0.05% biocytin, adjusted to pH 7.3 with KOH. For all experiments GABAa receptors were blocked with SR-95531 (Gabazine, 5 μM, Ascent Scientific). For AHP current experiments, synaptic currents were blocked with DL-2-amino-5-phosphopentanoic acid (D,L-AP5, 100 μM, Ascent Scientific), 2,3, dioxo-6-nitro-1,2,3,4, tetrahydrobenzo-quinoxaline-7-sulfonamide (NBQX, 10 μM) and SR-95531 (Gabazine, 5 μM, Ascent Scientific). Ca2+-activated currents were blocked with Tetraethylammonium chloride (TEA, 1 mM, Abcam), apamin (100 nM, Abcam), and carbachol (10 μM, Abcam). Current signals were recorded with either a Multiclamp 700A (Molecular Devices) or with an Axopatch 200B amplifier (Molecular Devices) and were filtered at 2 kHz using a built-in Bessel filter and digitized at 10 kHz. Voltage signals were filtered at 2 kHz and digitized at 10 kHz. Data were acquired using Axograph on a Dell PC. Data acquisition was terminated when series resistance was >15 MΩ. For voltage clamp recordings, pyramidal cells were held at −60 mV. No holding current was used for current-clamp recordings.
(§4) Axograph was used on a Macintosh computer for analysis. To measure spike frequency, EGFP-positive layer 2/3 neurons of the mPFC were injected with a 600 ms depolarizing current pulses ranging from 50 to 500 pA at 50 pA increments with an 10 s inter-trial interval. Each current pulse was measured in triplicate, and the number of resulting APs was averaged. For analysis of fAHP amplitude, the second and third current evoked spikes within the 600 ms pulse were measured. The fAHP potential was measured by subtracting the voltage at the peak of the fAHP from the threshold potential for spike initiation (slope of AP exceeds 50 mV/ms). The mAHP potential was measured at the peak of the AHP that followed the 600 ms current pulse. […]

shCon cells = experiment: Whole-cell current-clamp recordings (AP spiking, mAHP/sAHP) in shCon (control shRNA) mPFC layer 2/3 pyramidal neurons, acute brain slices; assay type: cell-based, rat
Description: as §1, §2, §3, §4

KCNQ1 = KCNQ1 (Homo sapiens, UniProt P51787); conditions: KCNQ1 antagonist; Towart et al., 2009; cited from earlier work
[1] = system: AHP currents in EGFP+ cells expressing shCon or shTCF4; experiment: Whole-cell voltage-clamp recordings of AHP currents with progressive pharmacological blockade; assay type: cell-based, rat
Description: as §3, with “kHz.” for “kHz. Voltage signals were filtered at 2 kHz and digitized at 10 kHz. Data were acquired using Axograph on a Dell PC. Data acquisition was terminated when series resistance was >15 MΩ. For voltage clamp recordings, pyramidal cells were held at −60 mV. No holding current was used for current-clamp recordings.”

TCF4 protein = experiment: Western blot of endogenous TCF4 protein after shRNA transfection of rat neuroblastoma cells; assay type: cell-based; conditions: transfected rat neuroblastoma cells; vs control shRNA; N=4
Description: Rat neuroblastoma cells (B104) were cultured in Dulbecco's modified Eagle medium (DMEM) (Thermo Fisher) supplemented with 10% FBS, 100 U-100 μg/ml Penicillin-Streptomycin, 2 mM L-Glutamine, and 100 μm non-essential amino acids and maintained at 37° C. with 5% CO2. At a confluency of […], cells were co-transfected in 6 well plates using Lipofectamine 3000 (Thermo Fisher) with 0.5 μg PBR-GFP, a puromycin selection plasmid, and 2 μg shRNA or 2 μg CRISPR-Cas9 plasmids according to the manufacturer's protocol. Cells were selected with 500 ng/mL puromycin for 24 hours and were allowed to recover in growth medium lacking penicillin-streptomycin for 48 hours.
Rat neuroblastoma cells were washed in cold PBS, scraped from plates and pelleted by centrifugation at 4000 rpm for 5 minutes at 4° C. […]
30 μg of total protein were used from each sample; protein was subjected to gel electrophoresis using a 4-12% gradient Novex Bis-Tris Bolt SDS-PAGE gel. […] Bound antibody was detected using IRdye donkey anti-goat 680 (1:10,000, Li-Cor) and IRdye donkey anti-rabbit 800 (1:10,000, Li-Cor). Antibody detection and quantification were carried out using the LI-COR Odyssey infrared system and software.

TCF4 transcript = experiment: qRT-PCR of TCF4 transcript after shRNA transfection of rat neuroblastoma cells; assay type: cell-based; conditions: transfected rat neuroblastoma cells; vs control shRNA; N=4
Text: To measure Tcf4 transcript expression across the lifespan in the rat, three cortical samples per age group, as well as cortical samples extracted from both genotypes of postnatal day 21 (p21) TCF4 mice to measure SCN10a and KCNQ1 expression, were separately flash frozen and homogenized in Trizol (Life Technologies). Aqueous phase was mixed with a 1:1 volume of 70% ethanol prior to purification using RNeasy mini columns treated with DNAse according to manufacturer's protocol (Qiagen). RNA samples were then reverse-transcribed to cDNA using the Quantscript Reverse Transcriptase kit (Qiagen). Amplification of cDNA was performed with iTaq SYBR Green Supermix (Bio-Rad) and TCF4, KCNQ1, and SCN10a primers were designed using with Primer 3 software (http://bioinfo.ut.ee/primer3-0.4.0/). End-point PCR followed by product sequencing, in addition to cDNA dilution series and melt curve analysis were used to verify primer design efficiency and specificity. Real time PCR was performed on the 7900HT Fast Real-Time PCR system (Applied Biosystems) and melt curve analysis was done for absolute quantification of primer efficiency. Data were expressed as fold change of gene of interest normalized to GAPDH expression using 2^delta delta Ct. […]

## CC(C)(Oc1ccc(Cl)cc1)C(=O)NC1C2CC3CC1CC(NS(C)(=O)=O)(C3)C2 (stereo not drawn) [JNJ303, 2-(4-Chlorophenoxy)-2-methyl-N-[5-[(methylsulfonyl)amino]tricyclo[3.3.1.13,7]dec-2-yl]-propanamide]
shTCF4 cells; JNJ303 1 μM, shTCF4 cells, significant for current pulses 250-500 pA, p=0.0084
  effect on the frequency of APs generated in response to current injections: effective at increasing the spiking frequency; also recorded: significantly increased firing frequency
shTCF4 cells; JNJ303, shTCF4 cells, before −2.31±0.46 mV, p=0.041
  amplitude of the sAHP after application: −1.71±0.33 mV
shTCF4 cells; JNJ303, shTCF4 cells, before −3.52±0.58 mV, p<0.044
  amplitude of the mAHP after application: −2.77±0.36 mV
shCon cells; JNJ303, N=8, p=0.11
  effect on the frequency of APs (spiking): neither UCL2077 (p=0.35) nor JNJ303 (p=0.11) had an effect on spiking
shCon cells; JNJ303, before −4.67±0.48 mV, N=9, p=0.20
  amplitude of the sAHP after application: −4.22±0.57
shCon cells; JNJ303, before −5.93±0.58 mV, N=9, not significant
  amplitude of the mAHP after application: −5.61±0.74 mV
KCNQ1
  IC50: 64 nM

## CC[N+](CC)(CC)CC.[Cl-] [TEA, Tetraethylammonium chloride]
[1]; TEA 1 mM bath application, shCon and shTCF4 cells
  effect on the fAHP current: blockade of the fAHP current

## C[N+](C)(C)CCOC(N)=O [carbachol]
shTCF4 cells; carbachol (10 μM) bath application, shTCF4 neurons, 600 ms pulses 50 to 500 pA, p=0.0075
  effect on action potential frequency: effective at rescuing action potential frequency
shTCF4 cells; carbachol, shTCF4 cells, before −6.78±0.70, p=0.0051
  peak amplitude of the mAHP after application: −4.23±0.60 mV
shCon cells; carbachol bath application, effective for current injections 200-500 pA, N=12, p=0.0038
  effect on spiking: increased spiking
shCon cells; carbachol, before −3.13±0.45, N=19, p=0.0004
  amplitude of the sAHP after application: −1.10±0.32 mV
shCon cells; carbachol, before −4.21±0.52, N=19, p=0.0008
  peak amplitude of the mAHP after application: −2.32±0.31 mV
[1]; carbachol, shTCF4 cells, average voltage-clamp traces
  effect on the sAHP (voltage clamp): block the sAHP

## shTCF4: shRNA construct targeting the open reading frame of rat TCF4, AGAAACTAGACGACGACAA (SEQ ID NO:2) (the letters are possibly those of the target site; listed as Homo sapiens)
TCF4 protein
  endogenous TCF4 protein (Western blot): 1.9±2.0 % of control
TCF4 transcript
  TCF4 transcript (qRT-PCR): 0.55±0.15 fold change from control

## shTCF4_2: shRNA construct targeting the 3′ UTR of rat TCF4, GTTTCAGCATTCCCAATTA (SEQ ID NO:1) (the letters are possibly those of the target site)
TCF4 protein
  endogenous TCF4 protein (Western blot): 36.4±4.3 % of control
TCF4 transcript
  TCF4 transcript (qRT-PCR): 0.47±0.11 fold change from control

Source: patent US11221329B2, “Treatment of neurological and neurodevelopmental diseases and disorders associated with aberrant ion channel expression and activity” (LIEBER INSTITUTE FOR BRAIN DEVELOPMENT, priority 2015, dated 2022)
